Experimental data reported in patent publication US11472830B2, “Cyclic dinucleotides as sting agonists” (Janssen Biotech, Inc., priority 2016, dated 2022).
Blank lines part the entries; values can stand above or below the molecule they belong to.

Experiments:
[1] = test system: CT26 colon carcinoma tumor; test: STING in vivo activity, mouse CT26 tumor model; settings: CT26 tumor in Balb/c mice, 0.05 mg intratumorally every three days, three doses; for In vivo activity (cures): animals with no measurable tumor of 8
Description: For all studies, female Balb/c mice were obtained from Charles River Labs (Wilmington, Mass.) and used when they were 6-8 weeks of age and weighed approximately 20 g. All animals were allowed to acclimate and recover from any shipping-related stress for a minimum of 5 days prior to experimental use. Reverse osmosis chlorinated water and irradiated food (Laboratory Autoclavable Rodent Diet 5010, Lab Diet) were provided ad libitum, and the animals were maintained on a 12 h light and dark cycle. Cages and bedding were autoclaved before use and changed weekly. All experiments were carried out in accordance with The Guide for the Care and Use of Laboratory Animals and were approved by the Institutional Animal Care and Use Committee of Janssen R & D, Spring House, Pa. Each experimental group contained 8 mice. In vivo efficacy in a mouse CT26 tumor model was determined by implanting 500,000 CT26 colon carcinoma tumor cells subcutaneously into Balb/c mice and allowing tumors to establish to 100-300 mm^3. Compounds were injected intratumorally formulated in phosphate buffered saline in a volume of 0.1 ml per injection. Mice were administered 0.05 mg every three days for a total of three doses. Efficacy was measured as the percent tumor growth inhibition (TGI) calculated by the reduction in size of the Treated tumor volume (T) over the Control tumor volume (C) according to the following formula: ((C−T)/(C))*100 when all control animals were still on study. Cures were defined as the number of animals with no measurable tumor detected 10 tumor volume doubling times (TVDT) after the last dose was administered.

[2] = test system: IFN-β secretion in THP1-Blue ISG cells; test: Human interferon-β induction assay; format: cell-based; settings: total cumulative IFN-β induction over the dose range tested (0.78 to 50 uM) in THP-1 cells
Description: Human Interferon-β Induction Assay
THP1-Blue ISG cells are used to measure the secretion of IFN-β into the culture supernatant following STING pathway activation. To run the assay, anti-IFN-β capture antibodies were coated on 96 well MultiArray plates (Mesoscale Discovery). After a one hour incubation, plates were washed and 50 μL supernatant from the STING human cell reporter assay plates or IFN-β standards were mixed with 20 μL Sulfotag-conjugated detection antibody in the coated plates. Plates were incubated, shaking for 2 h, washed, and read buffer was applied. Electrochemiluminescence was measured on the Sectorlmager.

[3] = test system: human STING pathway in THP1-ISG cells; test: STING human cell reporter assay; format: cell-based; settings: 24 h, mean of at least three values
Description: STING Human Cell Reporter Assay
Agonism of the human STING pathway is assessed in THP1-ISG cells (Invivogen, cat #thp-isg) derived from human THP1 monocyte cell line by stable integration of an interferon regulatory factor (IRF)-inducible SEAP reporter construct. THP1-Blue ISG cells express a secreted embryonic alkaline phosphatase (SEAP) reporter gene under the control of an ISG54 minimal promoter in conjunction with five interferon (IFN)-stimulated response elements. As a result, THP1-Blue ISG cells allow the monitoring of IRF activation by determining the activity of SEAP. The levels of IRF-induced SEAP in the cell culture supernatant are readily assessed with alkaline phosphatase detection medium, a SEAP detection reagent. These cells are resistant to Zeocin. […] To run the assay, 60,000 cells were dispensed in 30 μL/well of a white, opaque bottom tissue culture treated 384-well plate.
Test compounds were added in a volume of 10 μL (1% DMSO final concentration). Compounds are initially prepared in 100% DMSO, spotted on an intermediate dilution plate and then diluted in media prior to transfer. The assay was incubated for 24 h at 37 °C, 5% CO2 then plates were centrifuged at 1200 rpm (120× g) for 5 min. After final incubation, 90 μL of alkaline phosphatase detection medium-substrate was added to each well of a new 384-well clear plate and 10 μL of the cell supernatant was transferred from the assay plate to the new alkaline phosphatase detection medium-plate using a Biomek FX and mixed 4 times.

STING = STING (Homo sapiens, UniProt Q86WV6, H232R); test: STING SPA binding assay; settings: displacement of [3H]-2′3′-cGAMP; mean of at least three values; read-out: hSTING SPA IC50
Description: The HIS tag is cleaved after purification and prior to biotinylation.
Test compounds (80 nL) were added with an acoustic dispenser (EDC Biosystems) in 100% DMSO for a final assay concentration of 1% DMSO. Plates were centrifuged for 1 min and incubated for 60 min at room temperature. Finally, (2 μL) polystyrene streptavidin SPA beads (PerkinElmer RPNQ0306) were added and plates were sealed and centrifuged for 1 min at room temperature. Plates were dark adapted for 2 h and read on a ViewLux (Perkin Elmer) for 12 min per plate.

HBV infected PHH cells = test: Suppression of HBV virus in PHH cells using conditioned media from STING activated primary human PBMC; format: cell-based, hepatitis B virus; settings: conditioned media from PBMCs stimulated at 20, 4, 0.8 μM for 48 h, 1:1 on HBV infected PHH cells; HBsAg 8 days later; two donors; read-out: EC50 (HBsAg production)
Source text: Suppression of HBV Virus in PHH Cells Using Conditioned Media from STING Activated Primary Human PBMC
Primary human hepatocytes can be infected with hepatitis B virus and during an established infection, will produce viral proteins such as HBsAg and HBeAg that can be detected by ELISA. Therapeutic treatment with compounds such as entecavir can suppress HBV reproduction, which can be measured by decreased viral protein production. (# of cells) 4×10^5 cells/well primary human hepatocytes (BioReclamation, Westbury, N.Y.) were dispensed into 500 μL/well of flat-bottom, tissue culture treated, 24-well plates. 24 h later, cells were infected with 30-75 moi of HBV. On the next day, the PHH were washed 3× and fresh maintenance media was added to the cells. Concurrently, PBMC were isolated as described previously. To stimulate the PBMC, 10,000,000 cells were dispensed into 400 μL/well of flat-bottom, tissue culture treated, 24-well plates. […] Cells were measured for activation marker upregulation using flow cytometery. […] Samples were analyzed on an Attune NxT flow cytometer (Thermo Fisher, Carlsbad, Calif.)
From the stimulated PBMC cultures, a portion of supernatant was reserved for cytokine detection by Luminex, as described previously. […] Following 96 h, the media was collected and HBsAg was measured.

STING, sequence (Q86WV6 139-379 H232R): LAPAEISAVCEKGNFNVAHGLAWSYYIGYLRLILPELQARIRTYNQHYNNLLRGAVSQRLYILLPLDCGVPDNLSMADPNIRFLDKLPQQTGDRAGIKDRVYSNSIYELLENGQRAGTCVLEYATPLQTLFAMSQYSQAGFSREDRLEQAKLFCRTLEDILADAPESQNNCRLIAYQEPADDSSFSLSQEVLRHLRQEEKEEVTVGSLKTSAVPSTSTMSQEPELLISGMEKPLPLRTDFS

SMILES: Nc1nc2c(ncn2C2OC3CO[P@@](=O)(S)OC4C(CO[P@@](=O)(S)OC2C3O)OC(n2cnc3c(N)ncnc32)C4F)c(=O)[nH]1 (single isomer, unassigned) [Compound 4]
- In vivo activity (% TGI) [1]: 93.7%
- In vivo activity (cures) [1]: 6/8
- human IFN-β (ranking value) [2]: 2247
- EC50 [3]: 90 nM

SMILES: B[P@@]1(=O)OCC2OC(n3cnc4c(=O)[nH]c(N)nc43)C(O[P@](=O)(S)OCC3OC(n4cnc5c(N)ncnc54)C(F)C3O1)C2OC (single isomer, unassigned) [Compound 9]
- In vivo activity (% TGI) [1]: 89.8%
- human IFN-β (ranking value) [2]: 2240
- EC50 [3]: 640 nM

SMILES: Nc1nc2c(ncn2C2OC3COP(=O)(O)OC4C5OCC4(COP(=O)(O)OC2C3O)OC5n2cnc3c(N)ncnc32)c(=O)[nH]1 (stereo not drawn) [Compound 6]
- In vivo activity (% TGI) [1]: 73.9%
- In vivo activity (cures) [1]: 1/8
- human IFN-β (ranking value) [2]: 27
- EC50 [3]: 120 nM

SMILES: Nc1nc2c(ncn2C2OC3CO[P@](=O)(S)OC4C(CO[P@](=O)(S)OC2C3O)OC(n2cnc3c(N)ncnc32)C4F)c(=O)[nH]1 (single isomer, unassigned) [Compound 5]
- In vivo activity (% TGI) [1]: 93.3%
- In vivo activity (cures) [1]: 7/8
- human IFN-β (ranking value) [2]: 2737
- EC50 [3]: 160 nM

SMILES: B[P@@]1(=O)OCC2OC(n3cnc4c(=O)[nH]c(N)nc43)C(O[P@](B)(=O)OCC3OC(n4cnc5c(N)ncnc54)C(O)C3O1)C2O (single isomer, unassigned) [Compound 8]
- In vivo activity (% TGI) [1]: 95.3%
- In vivo activity (cures) [1]: 4/8
- human IFN-β (ranking value) [2]: 2054
- EC50 [3]: 110 nM

SMILES: B[P@]1(=O)OCC2OC(n3cnc4c(=O)[nH]c(N)nc43)C(O[P@](=O)(S)OCC3OC(n4cnc5c(N)ncnc54)C(F)C3O1)C2OC (single isomer, unassigned) [Compound 10]
- human IFN-β (ranking value) [2]: 1321
- EC50 [3]: 540 nM

SMILES: B[P@]1(=O)OCC2OC(n3cnc4c(=O)[nH]c(N)nc43)C(O[P@@](B)(=O)OCC3OC(n4cnc5c(N)ncnc54)C(O)C3O1)C2O (single isomer, unassigned) [Compound 7]
- In vivo activity (% TGI) [1]: 94.3%
- In vivo activity (cures) [1]: 5/8
- human IFN-β (ranking value) [2]: 2260
- EC50 (HBV infected PHH cells): 0.0851 nM
- EC50 [3]: 1120 nM

Now from value to molecule, other results behind:

- EC50 [3]: 220 nM
- IC50 (STING): < 10 nM
SMILES: B[P@]1(=O)OCC2OC(n3cnc4c(=O)[nH]c(N)nc43)C(O[P@@](B)(=O)OCC3OC(n4cnc5c(N)ncnc54)C(F)C3O1)C2OC (single isomer, unassigned) [Compound 12]
- human IFN-β (ranking value) [2]: 3860

- EC50 [3]: 590 nM
SMILES: B[P@@]1(=O)OCC2OC(n3cnc4c(N)ncnc43)C(F)C2O[P@](=O)(S)OCC2OC(n3cnc4c(=O)[nH]c(N)nc43)C(O1)C2OC (single isomer, unassigned) [Compound 13]
- human IFN-β (ranking value) [2]: 2900

- EC50 [3]: 450 nM
SMILES: B[P@]1(=O)OCC2OC(n3cnc4c(N)ncnc43)C(F)C2O[P@@](=O)(S)OCC2OC(n3cnc4c(=O)[nH]c(N)nc43)C(O1)C2OC (single isomer, unassigned) [Compound 14]
- human IFN-β (ranking value) [2]: 4964

- EC50 [3]: 490 nM
- IC50 (STING): < 10 nM
SMILES: B[P@@]1(=O)OCC2OC(n3cnc4c(=O)[nH]c(N)nc43)C(O[P@](B)(=O)OCC3OC(n4cnc5c(N)ncnc54)C(F)C3O1)C2OC (single isomer, unassigned) [Compound 11]
- human IFN-β (ranking value) [2]: 3840
